Data reported in patent US20110250135A1, “Piperazine Derivatives for Binding and Imaging Amyloid Plaques and Their Use” (Bayer Schering Pharma Aktiengesellschaft, priority 2008, published 2011).

How the values were obtained:
[1] = biological target: T1, Aβ plaques (Homo sapiens, UniProt P05067); assay: Autoradiographical analysis of binding to cryosections from cortex of AD patients and controls; conditions: F-18 labeled compound; Alzheimer's disease patients (AD) vs controls without Aβ plaques
T1 construct: controls without Aβ plaques; from tissue; host or cells: frontal lobe / cortex sections (frozen and paraffin) from AD patients, FTD patients and age-matched controls
T1 sequence (P05067 672-713 limits assumed): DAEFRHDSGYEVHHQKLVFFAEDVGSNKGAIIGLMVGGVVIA
In short: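 Frozen (18 μm) and deparaffinized paraffin (6 μm) frontal-lobe sections from Alzheimer's, frontotemporal dementia and age-matched control brains were incubated 1.5 h at room temperature with F-18 test compound at 10 Bq/μl in 25 mM Hepes pH 7.4, 0.1% BSA. Blocking used 1000-fold excess unlabeled compound; phosphoimager readout.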

[2] = Biodistribution: organ distribution of F-18 signal in mice; format: in vivo, male NMRI mice; conditions: for Organ distribution of F-18 signal, intestine: intestine (with content); for Organ distribution of F-18 signal, stomach: stomach (without content)
In short: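 Male NMRI mice (~30 g, 3 per time point) received ca. 150 kBq of the test compound i.v. via tail vein. At 2, 5, 30, 60 and 240 min, urine and feces were collected and organs and tissues taken for gamma counting. Values are decay-corrected % ID/g ± SD.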

O=C(NCC(=O)N1CCN(c2ccc(OCc3ccccc3)cn2)CC1)c1ccnc([18F])c1 [Example 14f, [^18F]-N-(2-{4-[5-(benzyloxy)pyridin-2-yl]piperazin-1-yl}-2-oxoethyl)-2-fluoropyridine-4carboxamide]
autoradiographical analysis of binding to cryosections from cortex [1]: Specific binding in plaque-rich regions of AD samples
Organ distribution of F-18 signal, adrenals ([2]; 2 min post i.v. injection): 16.31 % ID/g
Organ distribution of F-18 signal, adrenals ([2]; 5 min post i.v. injection): 6.14 % ID/g
Organ distribution of F-18 signal, adrenals ([2]; 30 min post i.v. injection): 1.57 % ID/g
Organ distribution of F-18 signal, adrenals ([2]; 60 min post i.v. injection): 1.35 % ID/g
Organ distribution of F-18 signal, adrenals ([2]; 240 min post i.v. injection): 0.23 % ID/g
Organ distribution of F-18 signal, blood ([2]; 2 min post i.v. injection): 2.05 % ID/g
Organ distribution of F-18 signal, blood ([2]; 5 min post i.v. injection): 2.36 % ID/g
Organ distribution of F-18 signal, blood ([2]; 30 min post i.v. injection): 1.30 % ID/g
Organ distribution of F-18 signal, blood ([2]; 60 min post i.v. injection): 0.33 % ID/g
Organ distribution of F-18 signal, blood ([2]; 240 min post i.v. injection): 0.08 % ID/g
Organ distribution of F-18 signal, brain ([2]; 2 min post i.v. injection): 3.87 % ID/g
Organ distribution of F-18 signal, brain ([2]; 5 min post i.v. injection): 3.14 % ID/g
Organ distribution of F-18 signal, brain ([2]; 30 min post i.v. injection): 0.52 % ID/g
Organ distribution of F-18 signal, brain ([2]; 60 min post i.v. injection): 0.13 % ID/g
Organ distribution of F-18 signal, brain ([2]; 240 min post i.v. injection): 0.02 % ID/g
Organ distribution of F-18 signal, fat ([2]; 2 min post i.v. injection): 1.05 % ID/g
Organ distribution of F-18 signal, fat ([2]; 5 min post i.v. injection): 2.17 % ID/g
Organ distribution of F-18 signal, fat ([2]; 30 min post i.v. injection): 1.02 % ID/g
Organ distribution of F-18 signal, fat ([2]; 60 min post i.v. injection): 0.59 % ID/g
Organ distribution of F-18 signal, fat ([2]; 240 min post i.v. injection): 0.02 % ID/g
Organ distribution of F-18 signal, femur ([2]; 2 min post i.v. injection): 1.44 % ID/g
Organ distribution of F-18 signal, femur ([2]; 5 min post i.v. injection): 1.38 % ID/g
Organ distribution of F-18 signal, femur ([2]; 30 min post i.v. injection): 0.55 % ID/g
Organ distribution of F-18 signal, femur ([2]; 60 min post i.v. injection): 0.24 % ID/g
Organ distribution of F-18 signal, femur ([2]; 240 min post i.v. injection): 0.13 % ID/g
Organ distribution of F-18 signal, heart ([2]; 2 min post i.v. injection): 3.67 % ID/g
Organ distribution of F-18 signal, heart ([2]; 5 min post i.v. injection): 3.81 % ID/g
Organ distribution of F-18 signal, heart ([2]; 30 min post i.v. injection): 0.93 % ID/g
Organ distribution of F-18 signal, heart ([2]; 60 min post i.v. injection): 0.20 % ID/g
Organ distribution of F-18 signal, heart ([2]; 240 min post i.v. injection): 0.06 % ID/g
Organ distribution of F-18 signal, intestine ([2]; 2 min post i.v. injection): 2.27 % ID/g
Organ distribution of F-18 signal, intestine ([2]; 5 min post i.v. injection): 2.90 % ID/g
Organ distribution of F-18 signal, intestine ([2]; 30 min post i.v. injection): 11.37 % ID/g
Organ distribution of F-18 signal, intestine ([2]; 60 min post i.v. injection): 13.11 % ID/g
Organ distribution of F-18 signal, intestine ([2]; 240 min post i.v. injection): 13.53 % ID/g
Organ distribution of F-18 signal, kidney ([2]; 2 min post i.v. injection): 7.60 % ID/g
Organ distribution of F-18 signal, kidney ([2]; 5 min post i.v. injection): 8.59 % ID/g
Organ distribution of F-18 signal, kidney ([2]; 30 min post i.v. injection): 7.84 % ID/g
Organ distribution of F-18 signal, kidney ([2]; 60 min post i.v. injection): 2.86 % ID/g
Organ distribution of F-18 signal, kidney ([2]; 240 min post i.v. injection): 0.79 % ID/g
Organ distribution of F-18 signal, liver ([2]; 2 min post i.v. injection): 8.19 % ID/g
Organ distribution of F-18 signal, liver ([2]; 5 min post i.v. injection): 13.46 % ID/g
Organ distribution of F-18 signal, liver ([2]; 30 min post i.v. injection): 5.20 % ID/g
Organ distribution of F-18 signal, liver ([2]; 60 min post i.v. injection): 1.87 % ID/g
Organ distribution of F-18 signal, liver ([2]; 240 min post i.v. injection): 0.90 % ID/g
Organ distribution of F-18 signal, lung ([2]; 2 min post i.v. injection): 3.63 % ID/g
Organ distribution of F-18 signal, lung ([2]; 5 min post i.v. injection): 3.93 % ID/g
Organ distribution of F-18 signal, lung ([2]; 30 min post i.v. injection): 1.27 % ID/g
Organ distribution of F-18 signal, lung ([2]; 60 min post i.v. injection): 0.42 % ID/g
Organ distribution of F-18 signal, lung ([2]; 240 min post i.v. injection): 0.12 % ID/g
Organ distribution of F-18 signal, muscle ([2]; 2 min post i.v. injection): 1.94 % ID/g
Organ distribution of F-18 signal, muscle ([2]; 5 min post i.v. injection): 2.14 % ID/g
Organ distribution of F-18 signal, muscle ([2]; 30 min post i.v. injection): 0.62 % ID/g
Organ distribution of F-18 signal, muscle ([2]; 60 min post i.v. injection): 0.26 % ID/g
Organ distribution of F-18 signal, muscle ([2]; 240 min post i.v. injection): 0.03 % ID/g
Organ distribution of F-18 signal, pancreas ([2]; 2 min post i.v. injection): 4.49 % ID/g
Organ distribution of F-18 signal, pancreas ([2]; 5 min post i.v. injection): 4.49 % ID/g
Organ distribution of F-18 signal, pancreas ([2]; 30 min post i.v. injection): 1.64 % ID/g
Organ distribution of F-18 signal, pancreas ([2]; 60 min post i.v. injection): 0.32 % ID/g
Organ distribution of F-18 signal, pancreas ([2]; 240 min post i.v. injection): 0.11 % ID/g
Organ distribution of F-18 signal, skin ([2]; 2 min post i.v. injection): 1.12 % ID/g
Organ distribution of F-18 signal, skin ([2]; 5 min post i.v. injection): 1.84 % ID/g
Organ distribution of F-18 signal, skin ([2]; 30 min post i.v. injection): 1.17 % ID/g
Organ distribution of F-18 signal, skin ([2]; 60 min post i.v. injection): 0.43 % ID/g
Organ distribution of F-18 signal, skin ([2]; 240 min post i.v. injection): 0.06 % ID/g
Organ distribution of F-18 signal, spleen ([2]; 2 min post i.v. injection): 1.67 % ID/g
Organ distribution of F-18 signal, spleen ([2]; 5 min post i.v. injection): 2.25 % ID/g
Organ distribution of F-18 signal, spleen ([2]; 30 min post i.v. injection): 0.78 % ID/g
Organ distribution of F-18 signal, spleen ([2]; 60 min post i.v. injection): 0.12 % ID/g
Organ distribution of F-18 signal, spleen ([2]; 240 min post i.v. injection): 0.04 % ID/g
Organ distribution of F-18 signal, stomach ([2]; 2 min post i.v. injection): 3.81 % ID/g
Organ distribution of F-18 signal, stomach ([2]; 5 min post i.v. injection): 3.68 % ID/g
Organ distribution of F-18 signal, stomach ([2]; 30 min post i.v. injection): 2.88 % ID/g
Organ distribution of F-18 signal, stomach ([2]; 60 min post i.v. injection): 2.07 % ID/g
Organ distribution of F-18 signal, stomach ([2]; 240 min post i.v. injection): 0.46 % ID/g
Organ distribution of F-18 signal, tail ([2]; 2 min post i.v. injection): 5.14 % ID/g
Organ distribution of F-18 signal, tail ([2]; 5 min post i.v. injection): 4.06 % ID/g
Organ distribution of F-18 signal, tail ([2]; 30 min post i.v. injection): 2.28 % ID/g
Organ distribution of F-18 signal, tail ([2]; 60 min post i.v. injection): 0.67 % ID/g
Organ distribution of F-18 signal, tail ([2]; 240 min post i.v. injection): 0.31 % ID/g
Organ distribution of F-18 signal, testicle ([2]; 2 min post i.v. injection): 1.42 % ID/g
Organ distribution of F-18 signal, testicle ([2]; 5 min post i.v. injection): 1.73 % ID/g
Organ distribution of F-18 signal, testicle ([2]; 30 min post i.v. injection): 0.79 % ID/g
Organ distribution of F-18 signal, testicle ([2]; 60 min post i.v. injection): 0.27 % ID/g
Organ distribution of F-18 signal, testicle ([2]; 240 min post i.v. injection): 0.04 % ID/g
Organ distribution of F-18 signal, thyroid ([2]; 2 min post i.v. injection): 3.00 % ID/g
Organ distribution of F-18 signal, thyroid ([2]; 5 min post i.v. injection): 2.94 % ID/g
Organ distribution of F-18 signal, thyroid ([2]; 30 min post i.v. injection): 0.94 % ID/g
Organ distribution of F-18 signal, thyroid ([2]; 60 min post i.v. injection): 0.30 % ID/g
Organ distribution of F-18 signal, thyroid ([2]; 240 min post i.v. injection): 0.16 % ID/g
